In patent US20090118332A1, “Therapeutic Agents - 551” (AstraZeneca AB, priority 2006, published 2009) one finds inhibition data, which are given here for 32 compounds.

Molecules are shown by their SMILES.

The assay deals with T1, human Fatty Acid Synthase (Homo sapiens, UniProt P49327).
T1 construct: made in house
In words: Human FAS enzyme assay (decrease in NADPH fluorescence). The format is biochemical. The settings on record: % inhibition at a concentration of 100 μmolar. A digest of the protocol: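 In-house human FAS was preincubated with compound and NADPH for 15 min at room temperature in 0.1 M Tris pH 7.5 with EDTA, glutathione and BSA. Malonyl CoA and acetyl CoA (500 μM and 150 μM in the added mix) were then added for 60 min. IC50 came from time-zero-subtracted NADPH fluorescence (340/460 nm).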

T1 sequence (P49327 whole entry): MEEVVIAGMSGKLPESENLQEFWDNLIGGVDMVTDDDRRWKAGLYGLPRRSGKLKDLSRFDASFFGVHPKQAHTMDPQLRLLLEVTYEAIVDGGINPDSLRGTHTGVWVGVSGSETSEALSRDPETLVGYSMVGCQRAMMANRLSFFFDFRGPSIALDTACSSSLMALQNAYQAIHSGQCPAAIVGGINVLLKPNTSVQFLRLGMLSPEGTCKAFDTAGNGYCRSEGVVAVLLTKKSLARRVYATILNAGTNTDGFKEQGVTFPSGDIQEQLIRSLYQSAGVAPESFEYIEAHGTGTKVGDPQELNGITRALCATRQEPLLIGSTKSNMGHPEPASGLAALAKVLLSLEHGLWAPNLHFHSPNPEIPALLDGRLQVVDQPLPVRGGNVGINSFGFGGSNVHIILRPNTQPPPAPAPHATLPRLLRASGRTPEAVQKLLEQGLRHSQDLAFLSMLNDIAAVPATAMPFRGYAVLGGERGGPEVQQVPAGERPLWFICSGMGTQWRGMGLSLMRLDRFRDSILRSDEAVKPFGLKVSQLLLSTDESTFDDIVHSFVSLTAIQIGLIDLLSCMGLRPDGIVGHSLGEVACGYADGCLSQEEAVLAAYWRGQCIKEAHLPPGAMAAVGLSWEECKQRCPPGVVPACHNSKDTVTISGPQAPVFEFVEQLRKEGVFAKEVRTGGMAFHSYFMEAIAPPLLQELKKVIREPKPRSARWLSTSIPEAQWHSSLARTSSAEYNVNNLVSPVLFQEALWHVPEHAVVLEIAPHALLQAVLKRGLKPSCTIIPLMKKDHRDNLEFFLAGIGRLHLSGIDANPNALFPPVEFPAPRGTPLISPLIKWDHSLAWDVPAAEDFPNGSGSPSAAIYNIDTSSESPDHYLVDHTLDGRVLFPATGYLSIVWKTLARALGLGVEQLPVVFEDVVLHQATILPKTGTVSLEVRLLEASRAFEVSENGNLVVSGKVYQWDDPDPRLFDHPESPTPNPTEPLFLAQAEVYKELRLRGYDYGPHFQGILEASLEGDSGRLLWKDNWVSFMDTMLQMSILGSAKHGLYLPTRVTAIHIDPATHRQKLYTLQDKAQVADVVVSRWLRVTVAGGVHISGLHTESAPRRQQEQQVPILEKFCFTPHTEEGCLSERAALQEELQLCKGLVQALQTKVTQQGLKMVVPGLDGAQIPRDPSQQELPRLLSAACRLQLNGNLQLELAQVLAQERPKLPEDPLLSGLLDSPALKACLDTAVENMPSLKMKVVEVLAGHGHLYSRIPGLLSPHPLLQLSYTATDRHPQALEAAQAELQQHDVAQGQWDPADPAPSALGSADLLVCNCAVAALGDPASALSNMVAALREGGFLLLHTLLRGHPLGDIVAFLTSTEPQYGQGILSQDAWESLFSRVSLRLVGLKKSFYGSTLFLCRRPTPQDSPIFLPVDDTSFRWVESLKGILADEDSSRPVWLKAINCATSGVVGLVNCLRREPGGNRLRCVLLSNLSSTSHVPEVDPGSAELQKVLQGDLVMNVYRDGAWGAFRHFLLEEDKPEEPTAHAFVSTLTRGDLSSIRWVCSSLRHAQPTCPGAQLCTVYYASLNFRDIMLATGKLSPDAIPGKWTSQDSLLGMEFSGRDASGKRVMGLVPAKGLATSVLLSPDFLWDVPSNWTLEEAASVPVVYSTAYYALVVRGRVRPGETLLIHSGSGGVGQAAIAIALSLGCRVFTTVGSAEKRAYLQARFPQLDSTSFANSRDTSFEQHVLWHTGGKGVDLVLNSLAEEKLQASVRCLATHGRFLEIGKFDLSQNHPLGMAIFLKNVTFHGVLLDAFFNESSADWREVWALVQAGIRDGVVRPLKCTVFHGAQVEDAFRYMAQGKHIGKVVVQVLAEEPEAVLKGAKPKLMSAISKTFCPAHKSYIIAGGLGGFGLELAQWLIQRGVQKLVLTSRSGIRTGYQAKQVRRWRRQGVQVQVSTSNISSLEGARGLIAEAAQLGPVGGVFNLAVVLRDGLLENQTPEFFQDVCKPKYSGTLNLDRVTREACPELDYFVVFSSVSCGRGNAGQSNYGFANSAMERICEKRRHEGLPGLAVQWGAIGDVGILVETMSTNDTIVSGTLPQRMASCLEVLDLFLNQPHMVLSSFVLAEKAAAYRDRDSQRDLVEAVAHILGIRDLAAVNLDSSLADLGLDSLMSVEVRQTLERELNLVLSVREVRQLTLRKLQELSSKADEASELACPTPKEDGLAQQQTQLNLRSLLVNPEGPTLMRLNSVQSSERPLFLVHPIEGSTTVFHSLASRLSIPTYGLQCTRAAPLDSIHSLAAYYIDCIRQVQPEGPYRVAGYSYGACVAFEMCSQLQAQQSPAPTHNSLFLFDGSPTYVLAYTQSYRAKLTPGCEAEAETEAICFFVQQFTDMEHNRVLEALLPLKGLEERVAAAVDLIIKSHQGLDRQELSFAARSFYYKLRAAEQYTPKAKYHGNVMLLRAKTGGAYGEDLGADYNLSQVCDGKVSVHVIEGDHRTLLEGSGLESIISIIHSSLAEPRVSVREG

In general, inhibition refers to the drop in the measured response relative to a control, in per cent. Lower therefore signals little suppression. In the case of `CNC(=O)CCNC(=O)Nc1cc(C(=O)N2CCC(c3ccc(C#N)cc3)CC2)ccc1C` [Example 179, 3-[[5-[4-(4-cyanophenyl)piperidine-1-carbonyl]-2-methyl-phenyl]carbamoylamino]-N-methyl-propanamide], the inhibition at 100 µM worked out at 89.2%.

As to `Cc1ccc(C(=O)N2CCC(c3ccc(C#N)cc3)CC2)cc1NC(=O)N[C@@H](CCS(C)(=O)=O)C(=O)OC(C)(C)C` [Example 180, tert-butyl (2S)-2-[[5-[4-(4-cyanophenyl)piperidine-1-carbonyl]-2-methyl-phenyl]carbamoylamino]-4-methylsulfonyl-butanoate], the inhibition at 100 µM amounted to 92%.

With `COC(=O)C1CCC(NC(=O)Nc2cc(C(=O)N3CCC(c4ccc(C#N)cc4)CC3)ccc2C)CC1` (centres unmarked) [Example 181, Methyl 4-[[5-[4-(4-cyanophenyl)piperidine-1-carbonyl]-2-methyl-phenyl]carbamoylamino]cyclohexane-1-carboxylate], 100 µM produced 93.1% inhibition.

In turn, `Cc1ccc(C(=O)N2CCC(c3ccc(C#N)cc3)CC2)cc1NC(=O)NC(C)CO` (centres unmarked) [Example 182, 1-[5-[4-(4-cyanophenyl)piperidine-1-carbonyl]-2-methyl-phenyl]-3-(1-hydroxypropan-2-yl)urea] showed an inhibition at 100 µM of 96.2%.

Take `Cc1ccc(C(=O)N2CCC(c3ccc(C#N)cc3)CC2)cc1NC(=O)NCC(C)O` (centres unmarked) [Example 183, 1-[5-[4-(4-cyanophenyl)piperidine-1-carbonyl]-2-methyl-phenyl]-3-(2-hydroxypropyl)urea]: 100 µM produced 89.6% inhibition.

`Cc1ccc(C(=O)N2CCC(c3ccc(C#N)cc3)CC2)cc1NC(=O)NCC(O)CO` (centres unmarked) [Example 184, 1-[5-[4-(4-cyanophenyl)piperidine-1-carbonyl]-2-methyl-phenyl]-3-(2,3-dihydroxypropyl)urea] displayed an inhibition at 100 µM of 81.7%.

For `Cc1ccc(C(=O)N2CCC(c3ccc(C#N)cc3)CC2)cc1NC(=O)NCCCCO` [Example 185, 1-[5-[4-(4-cyanophenyl)piperidine-1-carbonyl]-2-methyl-phenyl]-3-(4-hydroxybutyl)urea], the inhibition at 100 µM came out at 92.6%.

On to `Cc1ccc(C(=O)N2CCC(c3ccc(C#N)cc3)CC2)cc1NC(=O)NC(CO)CO` [Example 186, 1-[5-[4-(4-cyanophenyl)piperidine-1-carbonyl]-2-methyl-phenyl]-3-(1,3-dihydroxypropan-2-yl)urea], for which at 100 µM the inhibition was 86.4%.

Compound `Cc1ccc(C(=O)N2CCC(c3ccc(C#N)cc3)CC2)cc1NC(=O)NCC(C)(C)CO` [Example 188, 1-[5-[4-(4-cyanophenyl)piperidine-1-carbonyl]-2-methyl-phenyl]-3-(3-hydroxy-2,2-dimethyl-propyl)urea] had an inhibition at 100 µM of 89%.

As to `Cc1ccc(C(=O)N2CCC(c3ccc(C#N)cc3)CC2)cc1NC(=O)NCCOCCO` [Example 189, 1-[5-[4-(4-cyanophenyl)piperidine-1-carbonyl]-2-methyl-phenyl]-3-[2-(2-hydroxyethoxy)ethyl]urea], the inhibition at 100 µM came out at 85.6%.

In the case of `Cc1ccc(C(=O)N2CCC(c3ccc(C#N)cc3)CC2)cc1NC(=O)NC(C)(C)CO` [Example 190, 1-[5-[4-(4-cyanophenyl)piperidine-1-carbonyl]-2-methyl-phenyl]-3-(1-hydroxy-2-methyl-propan-2-yl)urea], the inhibition at 100 µM came out at 82.9%.

`Cc1ccc(C(=O)N2CCC(c3ccc(C#N)cc3)CC2)cc1NC(=O)NCCCO` [Example 191, 1-[5-[4-(4-cyanophenyl)piperidine-1-carbonyl]-2-methyl-phenyl]-3-(3-hydroxypropyl)urea]: the inhibition at 100 µM was 92.2%.

Take `Cc1ccc(C(=O)N2CCC(c3ccc(C#N)cc3)CC2)cc1NC(=O)N[C@@H](CO)C(N)=O` [Example 192, (2S)-2-[[5-[4-(4-cyanophenyl)piperidine-1-carbonyl]-2-methyl-phenyl]carbamoylamino]-3-hydroxy-propanamide]: 100 µM produced 85.1% inhibition.

Take `Cc1ccc(C(=O)N2CCC(c3ccc(C#N)cc3)CC2)cc1NC(=O)N[C@H]1CC[C@H](O)CC1` [Example 193, 1-[5-[4-(4-cyanophenyl)piperidine-1-carbonyl]-2-methyl-phenyl]-3-(4-hydroxycyclohexyl)urea]: 100 µM produced 85.8% inhibition.

The compound `Cc1ccc(C(=O)N2CCC(c3ccc(C#N)cc3)CC2)cc1NC(=O)NC1(CO)CCCC1` [Example 194, 1-[5-[4-(4-cyanophenyl)piperidine-1-carbonyl]-2-methyl-phenyl]-3-[1-(hydroxymethyl)cyclopentyl]urea] showed an inhibition at 100 µM of 84.3%.

`Cc1ccc(C(=O)N2CCC(c3ccc(C#N)cc3)CC2)cc1NC(=O)NCC(O)COc1ccccc1Cl` (centres unmarked) [Example 196, 3-[3-(2-chlorophenoxy)-2-hydroxy-propyl]-1-[5-[4-(4-cyanophenyl)piperidine-1-carbonyl]-2-methyl-phenyl]urea] gave an inhibition at 100 µM of 91.7%.

On to `Cc1ccc(C(=O)N2CCC(c3ccc(C#N)cc3)CC2)cc1NC(=O)NC12CC3CC(CC(O)(C3)C1)C2` [Example 197, 1-[5-[4-(4-cyanophenyl)piperidine-1-carbonyl]-2-methyl-phenyl]-3-(3-hydroxy-1-adamantyl)urea], for which the inhibition at 100 µM turned out to be 84.4%.

With `COC[C@@H](CO)NC(=O)Nc1cc(C(=O)N2CCC(c3ccc(C#N)cc3)CC2)ccc1C` [Example 198, 1-[5-[4-(4-cyanophenyl)piperidine-1-carbonyl]-2-methyl-phenyl]-3-[(2R)-1-hydroxy-3-methoxy-propan-2-yl]urea], the inhibition at 100 µM was determined as 87.9%.

Turning to `Cc1ccc(C(=O)N2CCC(c3ccc(C#N)cc3)CC2)cc1NC(=O)N[C@@H]1CCOC1` [Example 199, 1-[5-[4-(4-cyanophenyl)piperidine-1-carbonyl]-2-methyl-phenyl]-3-[(3R)-oxolan-3-yl]urea], testing at 100 µM gave an inhibition of 96.3%.

With `Cc1ccc(C(=O)N2CCC(c3ccc(C#N)cc3)CC2)cc1NC(=O)NCCCc1cn[nH]c1C` [Example 200, 1-[5-[4-(4-cyanophenyl)piperidine-1-carbonyl]-2-methyl-phenyl]-3-[3-(3-methyl-2H-pyrazol-4-yl)propyl]urea], the inhibition at 100 µM worked out at 91.8%.

In turn, `CCc1ccc(C(=O)N2CCC(c3ccc(C#N)cc3)CC2)cc1NC(=O)NC(C)C` [Example 201, 1-[5-[4-(4-cyanophenyl)piperidine-1-carbonyl]-2-ethyl-phenyl]-3-propan-2-yl-urea] came in with an inhibition at 100 µM of 94%.

`Cc1ccc(C(=O)N2CCC(c3ccc(C#N)cc3)CC2)cc1NC(=O)NCC(C)(C)NS(C)(=O)=O` [Example 202, 1-[5-[4-(4-cyanophenyl)piperidine-1-carbonyl]-2-methyl-phenyl]-3-(2-methanesulfonamido-2-methyl-propyl)urea]: at 100 µM the inhibition was 97.3%.

Compound `Cc1ccc(C(=O)N2CCC(c3ccc(C#N)cc3)CC2)cc1NC(=O)NCC(C)(C)N` [Example 203, 3-(2-amino-2-methyl-propyl)-1-[5-[4-(4-cyanophenyl)piperidine-1-carbonyl]-2-methyl-phenyl]urea] gave an inhibition at 100 µM of 91%.

The compound `CCS(=O)(=O)NC(C)(C)CNC(=O)Nc1cc(C(=O)N2CCC(c3ccc(C#N)cc3)CC2)ccc1C` [Example 204, 3-[5-[4-(4-cyanophenyl)piperidine-1-carbonyl]-2-methyl-phenyl]-1-[2-(ethylsulfonylamino)-2-methyl-propyl]urea] showed an inhibition at 100 µM of 91%.

As for `Cc1ccc(C(=O)N2CCC(c3ccc(C#N)cc3)CC2)cc1NC(=O)NCC(C)(C)NC(=O)C(C)(C)C` [Example 205, N-[1-[[5-[4-(4-cyanophenyl)piperidine-1-carbonyl]-2-methyl-phenyl]carbamoylamino]-2-methyl-propan-2-yl]-2,2-dimethyl-propanamide], at 100 µM the inhibition was 88.2%.

In the case of `Cc1ccc(C(=O)N2CCC(c3ccc(C#N)cc3)CC2)cc1NC(=O)NCCCNC(=O)OC(C)(C)C` [Example 206, tert-butyl N-[3-[[5-[4-(4-cyanophenyl)piperidine-1-carbonyl]-2-methyl-phenyl]carbamoylamino]propyl]carbamate], testing at 100 µM gave an inhibition of 83.8%.

In turn, `Cc1ccc(C(=O)N2CCC(c3ccc(C#N)cc3)CC2)cc1NC(=O)NCCCN` [Example 207, 3-(3-aminopropyl)-1-[5-[4-(4-cyanophenyl)piperidine-1-carbonyl]-2-methyl-phenyl]urea] gave an inhibition at 100 µM of 89.7%.

The compound `Cc1ccc(C(=O)N2CCC(c3ccc(C#N)cc3)CC2)cc1NC(=O)NC1CCN(C(=O)OC(C)(C)C)CC1` [Example 208, tert-butyl 4-[[5-[4-(4-cyanophenyl)piperidine-1-carbonyl]-2-methyl-phenyl]carbamoylamino]piperidine-1-carboxylate] yielded an inhibition at 100 µM of 84.9%.

`Cc1ccc(C(=O)N2CCC(c3ccc(C#N)cc3)CC2)cc1NC(=O)N[C@@H]1CCN(C(=O)OC(C)(C)C)C1` [Example 209, tert-butyl (3R)-3-[[5-[4-(4-cyanophenyl)piperidine-1-carbonyl]-2-methyl-phenyl]carbamoylamino]pyrrolidine-1-carboxylate] came in with an inhibition at 100 µM of 89.7%.

Compound `Cc1ccc(C(=O)N2CCC(c3ccc(C#N)cc3)CC2)cc1NC(=O)N[C@H]1CCN(C(=O)OC(C)(C)C)C1` [Example 210, tert-butyl (3S)-3-[[5-[4-(4-cyanophenyl)piperidine-1-carbonyl]-2-methyl-phenyl]carbamoylamino]pyrrolidine-1-carboxylate] registered an inhibition at 100 µM of 97.4%.

In the case of `Cc1ccc(C(=O)N2CCC(c3ccc(C#N)cc3)CC2)cc1NC(=O)NC1CCNCC1` [Example 211, 1-[5-[4-(4-cyanophenyl)piperidine-1-carbonyl]-2-methyl-phenyl]-3-(4-piperidyl)urea], at 100 µM the inhibition was 87.4%.

For `Cc1ccc(C(=O)N2CCC(c3ccc(C#N)cc3)CC2)cc1NC(=O)N[C@@H]1CCNC1` [Example 212, 1-[5-[4-(4-cyanophenyl)piperidine-1-carbonyl]-2-methyl-phenyl]-3-[(3R)-pyrrolidin-3-yl]urea], the inhibition at 100 µM was found to be 97%.
